Reference: US9617251B2, “Indanylaminopyridylcyclopropanecarboxylic acids, pharmaceutical compositions and uses thereof” (BOEHRINGER INGELHEIM INTERNATIONAL GMBH, priority 2015, dated 2017)
Values after ≈ are worked out from the molar mass of the structure shown.

Tests used:
human GPR40 receptor = human GPR40 receptor (Homo sapiens, UniProt O14842); test: IP1 accumulation measurements using the IPOne assay system (1321N1 cells stably expressing human GPR40 receptor); format: cell-based; details: 1321N1 cells expressing human GPR40, 1 h stimulation at 37° C.
Method in brief: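 Cells were stimulated with compounds for 1 h at 37 °C in HEPES-buffered stimulation buffer containing 50 mM LiCl, pH 7.4. IP1 was then detected by HTRF (IP1-d2/anti-IP1 cryptate, 1 h at room temperature), and 665/615 ratios were converted using an IP1 reference curve, with pEC50 obtained by variable-slope sigmoidal fitting.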

[1] = Chemical stability: degradation kinetics in acidic aqueous media (pH ca. 1.2), HPLC recovery; format: physicochemical; details: pH value of ca. 1.2 (acetonitrile/0.1 M aqueous HCl 2:3), 37° C.
Protocol: Degradation kinetics is used to simulate chemical stability of compounds in the acidic part of the gastro intestinal tract. […] Their application as medical drugs to treat human diseases is therefore less restricted and troublesome.
The chemical stability of the compounds of the invention at pH value of ca. 1.2 is determined as follows:
Compound is dissolved in an HPLC vial either in a mixture of acetonitrile/0.1 M aqueous HCl (2:3; pH ca. 1.2) or in a mixture of acetonitrile/McIlvaine buffer pH 7.4 (2:3) to get a concentration of approximately 0.25 mg/ml. The vial was then transferred into an HPLC autosampler system and maintained at a temperature of 37° C. A first sample is taken and injected immediately into a standard HPLC system with a UV DAD detector. Further samples are injected after 2, 4, 6, 8 and 10 hours. Amount of degraded compound is measured by determining the recovery rate of compound [%] for each injection using an HPLC standard gradient method. Therefore the peak area of the main peak for the first injection (AUt0) is determined and set as 100%. Peak area of the main peak is determined also for the further injections (AUtn, n=2, 4, 6, 8, 10) and expressed as fraction of (AUt0)/(AUtn, n=2, 4, 6, 8, 10) [%].

[2] = Aqueous solubility in buffer vs acetonitrile/water (1/1), LC-UV; format: physicochemical; details: kinetic from dmso stock, buffer pH 2.2, 24 h shaking, 2.5% DMSO
Method in brief: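 Aliquots of 10 mM DMSO stock diluted into buffer or acetonitrile/water (1/1), shaken 24 h, filtered and quantified by LC-UV; buffer amount compared with acetonitrile/water amount. Range 0.001-0.125 mg/mL at 2.5% DMSO; ">" marks over 90% dissolved.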

[3] = biological target: T1, cytochrome P450 2C8-isoenzyme (Homo sapiens, UniProt P10632); test: Inhibition of CYP-2C8 (deethylation of amodiaquine, human liver microsomes); format: in vitro ADME; details: CYP-2C8, human liver microsomes, amodiaquine 1 μM, 37° C.
T1 construct: from tissue; host or cells: human liver microsomes
T1 sequence (P10632 1-490): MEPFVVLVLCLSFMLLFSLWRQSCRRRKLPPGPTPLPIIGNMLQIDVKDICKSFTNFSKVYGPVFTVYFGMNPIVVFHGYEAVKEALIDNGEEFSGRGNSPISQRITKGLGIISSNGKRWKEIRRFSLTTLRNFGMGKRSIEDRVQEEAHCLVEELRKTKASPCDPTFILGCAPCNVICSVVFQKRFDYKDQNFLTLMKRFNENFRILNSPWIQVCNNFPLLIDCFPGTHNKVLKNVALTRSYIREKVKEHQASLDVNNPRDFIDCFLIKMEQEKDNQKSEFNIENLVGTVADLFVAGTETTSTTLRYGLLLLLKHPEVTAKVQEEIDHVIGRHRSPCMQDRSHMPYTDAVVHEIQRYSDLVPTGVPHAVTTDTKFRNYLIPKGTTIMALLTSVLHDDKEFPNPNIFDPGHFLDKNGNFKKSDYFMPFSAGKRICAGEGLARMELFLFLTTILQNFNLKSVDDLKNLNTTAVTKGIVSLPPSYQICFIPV
Method in brief: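 Amodiaquine deethylation (1 μM substrate) was measured at 37 °C in human liver microsomes (0.05 mg/mL), 0.1 M Tris, 5 mM MgCl2, and started with 1 mM NADPH. Desethylamodiaquine was quantified by LC-MS/MS against a d5 internal standard. IC50 came from five concentrations, typically top 10–50 μM with 1:4 dilutions, fitted by least squares to a slope-and-background model.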

[4] = biological target: T2, cytochrome P450 2C9-isoenzyme (Homo sapiens, UniProt P11712); test: Inhibition of CYP-2C9 (hydroxylation of diclofenac, human liver microsomes); format: in vitro ADME; details: CYP-2C9, human liver microsomes, diclofenac 10 μM, 37° C.
T2 construct: from tissue; host or cells: human liver microsomes
Method in brief: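 Human liver microsomes (0.1 mg/mL) in 0.1 M TRIS, 5 mM MgCl2, 10 μM diclofenac, 37 °C, duplicate five-point compound series; started with 1 mM NADPH, quenched by cooling and acetonitrile. Hydroxydiclofenac quantified by LC-MS/MS against 13C6 internal standard; IC50 by least-squares fit with slope and background terms.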

Chain of human GPR40 receptor (O14842 whole entry): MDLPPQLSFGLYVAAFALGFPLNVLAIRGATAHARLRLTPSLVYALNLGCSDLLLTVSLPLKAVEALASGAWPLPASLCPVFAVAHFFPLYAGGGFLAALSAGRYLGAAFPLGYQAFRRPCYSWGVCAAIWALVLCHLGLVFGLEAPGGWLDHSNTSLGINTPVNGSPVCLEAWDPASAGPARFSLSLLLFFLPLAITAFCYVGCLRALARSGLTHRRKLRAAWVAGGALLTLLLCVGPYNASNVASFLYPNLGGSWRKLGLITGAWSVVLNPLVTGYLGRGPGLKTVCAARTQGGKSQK
T2 sequence (P11712 whole entry): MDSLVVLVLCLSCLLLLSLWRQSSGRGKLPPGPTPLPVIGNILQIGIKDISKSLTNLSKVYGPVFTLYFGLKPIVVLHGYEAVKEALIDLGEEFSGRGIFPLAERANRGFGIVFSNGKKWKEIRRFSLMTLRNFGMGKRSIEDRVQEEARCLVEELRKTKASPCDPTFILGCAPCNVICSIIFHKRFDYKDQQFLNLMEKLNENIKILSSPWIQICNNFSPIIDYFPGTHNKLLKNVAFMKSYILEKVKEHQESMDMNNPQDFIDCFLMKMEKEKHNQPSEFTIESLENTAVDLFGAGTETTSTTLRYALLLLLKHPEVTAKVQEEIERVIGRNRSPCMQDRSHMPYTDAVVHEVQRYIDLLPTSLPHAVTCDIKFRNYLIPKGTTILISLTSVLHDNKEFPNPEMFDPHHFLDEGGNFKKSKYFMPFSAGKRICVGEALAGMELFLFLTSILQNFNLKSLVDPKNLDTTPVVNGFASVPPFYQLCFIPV

Structure (SMILES) | EC50 (human GPR40 receptor) | Amount of degradation after 2 h [1] | solubility at 24 h [2] | IC50 [3] | IC50 [4]
COc1cc(F)c(-c2ccc(F)c3c2CC[C@H]3Nc2ccc([C@H]3C[C@@H]3C(=O)O)cn2)c(F)c1 [Example 56] | 0.151 µM | <0.5% | 73 µg/mL (≈ 161 µM) | 33 µM | 28 µM
Nc1cc(F)c(-c2ccc(F)c3c2CC[C@H]3Nc2ccc([C@H]3C[C@@H]3C(=O)O)cn2)c(F)c1 [Example 58] | 0.462 µM | <0.5% | 107 µg/mL (≈ 243 µM) | > 50 µM | > 50 µM
Cc1cc(OCC2(O)CCOCC2)cc(C)c1-c1ccc(F)c2c1CC[C@H]2Nc1ccc([C@H]2C[C@@H]2C(=O)O)cn1 [Example 63] | 0.02 µM | <0.5% | 118 µg/mL (≈ 216 µM) | > 50 µM | > 50 µM
CNC(=O)c1cc(C)c(-c2ccc(F)c3c2CC[C@H]3Nc2ccc([C@H]3C[C@@H]3C(=O)O)cn2)c(C)c1 [Example 66] | 0.039 µM | <1.0% | 115 µg/mL (≈ 243 µM) | > 50 µM | > 50 µM
COc1cc(-c2cc(C)c(-c3ccc(F)c4c3CC[C@H]4Nc3ccc([C@H]4C[C@@H]4C(=O)O)cn3)c(C)c2)ccn1 [Example 72] | 0.006 µM | <0.5% | 101 µg/mL (≈ 193 µM) | 8 µM | 18 µM
O=C(O)[C@H]1C[C@@H]1c1ccc(N[C@@H]2CCc3c(-c4ccccc4C(F)(F)F)ccc(F)c32)nc1 [Example 74] | 0.049 µM | <1.0% | 82 µg/mL (≈ 180 µM) | 21 µM | 14 µM
Cc1cc(C(=O)N(C)C)cc(C)c1-c1ccc(F)c2c1CC[C@H]2Nc1ccc([C@H]2C[C@@H]2C(=O)O)cn1 [Example 75] | 0.186 µM | <0.5% | 117 µg/mL (≈ 240 µM) | > 50 µM | > 50 µM
